For experiment [1], the target named is T1, recombinant human tissue transglutaminase (Homo sapiens, UniProt P21980).
T1 construct: made in house
T1 sequence (P21980 1-687): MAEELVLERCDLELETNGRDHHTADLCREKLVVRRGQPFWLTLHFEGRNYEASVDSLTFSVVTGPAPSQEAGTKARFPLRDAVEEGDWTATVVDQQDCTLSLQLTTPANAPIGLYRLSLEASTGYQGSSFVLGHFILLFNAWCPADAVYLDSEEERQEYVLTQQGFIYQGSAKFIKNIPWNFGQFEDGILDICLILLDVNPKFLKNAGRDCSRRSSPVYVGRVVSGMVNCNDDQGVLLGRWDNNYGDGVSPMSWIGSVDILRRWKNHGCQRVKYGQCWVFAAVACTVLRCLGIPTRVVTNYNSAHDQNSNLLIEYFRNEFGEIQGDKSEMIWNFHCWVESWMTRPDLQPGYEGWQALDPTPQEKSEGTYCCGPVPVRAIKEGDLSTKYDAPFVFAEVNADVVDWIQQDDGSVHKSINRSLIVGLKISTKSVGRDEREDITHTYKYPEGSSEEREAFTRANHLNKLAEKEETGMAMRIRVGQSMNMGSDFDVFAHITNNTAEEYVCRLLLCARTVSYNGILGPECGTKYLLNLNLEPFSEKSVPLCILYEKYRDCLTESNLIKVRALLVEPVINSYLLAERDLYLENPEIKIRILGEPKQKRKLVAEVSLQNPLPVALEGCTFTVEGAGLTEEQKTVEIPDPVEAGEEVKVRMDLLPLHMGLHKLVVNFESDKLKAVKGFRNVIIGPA
As to the kind of experiment: tTGase assay with recombinant human tissue transglutaminase. The experiment is classed as biochemical. The note with it: dihydroisoxazole inhibitors of human tTGase; for Ki: competitive with Cbz-Gln-Gly substrate, read-out: Dissociation Constants (Kl); for Inhibition Rate Constants (kinh): irreversible inactivation.

Experiment [2] addresses T2, Tissue transglutaminase (tTG) (Homo sapiens, UniProt P21980).
T2 sequence (P21980 1-687): T1 sequence (P21980 1-687)
As to the kind of experiment: Inhibition of tTG (residual activity, glutamate dehydrogenase coupled assay). The experiment is classed as biochemical. Here is the method: Inhibition of tTG. tTG (9 μM) was inactivated in 200 mM MOPS, pH=7.1, 5 mM CaCl2, 1 mM ETDA at 30° C. containing 0-600 μM Pro-Gln-Pro-Aci-Leu-Pro-Tyr. Every 20 minutes a 40 μl aliquot was removed and residual tTG activity was assayed in 0.5 ml reaction containing 200 mM MOPS, pH=7.1, 5 mM CaCl2, 1 mM ETDA, 10 mM α-ketoglutarate, 180 U/ml glutamate dehydrogenase (Biozyme laboratories) at 30° C. for 20 minutes by measuring the decrease of absorption at 340 nm. Residual activity was corrected by the corresponding uninhibited tTG reaction (0 μM inhibitor) and fitted to an exponential decay. Kinetic parameters were obtained by double-reciprocal plotting of the apparent second-order inactivation constant or, for isatin analogs, by fitting the data for reversible inhibitors to a standard Michaelis Menten equation with a competitive inhibition constant.

Setting [3] is: dihydroisoxazoles, 200 mM MOPS, pH=7.1, 30° C., read-out: KI.
[4] abbreviates: isatin derivatives, reversible, competitive inhibition constant, read-out: Kl.

Where two headings read alike, the source gives them in different places.

Turning to `O=C(N[C@@H](Cc1ccc(F)cc1)C(=O)NCC1CC(Br)=NO1)OCc1ccccc1` (stereo partly drawn) [1c, {(S)-1-[(3-Bromo-4,5-dihydro-isoxazol-5-ylmethyl)-carbamoyl]-2-(4-fluoro-phenyl)-ethyl}-carbamic acid benzyl ester], in experiment [1], the kinh/Kl was determined as 980 min^−1M^−1, the Ki stood at 430 µM and the “Inhibition Rate Constants (kinh)” value amounted to 0.42 min⁻¹.
For `O=C(N[C@@H](Cc1ccc(O)cc1)C(=O)NCC1CC(Br)=NO1)OCc1cccnc1` (stereo partly drawn) [3c, {(S)-1-[(3-Bromo-4,5-dihydro-isoxazol-5-ylmethyl)-carbamoyl]-2-(4-hydroxy-phenyl)-ethyl}-carbamic acid pyridin-3-ylmethyl ester], in that order: 2700 min^−1M^−1, 78 µM and 0.21 min⁻¹.
On to `O=C(N[C@H](Cc1ccccc1)C(=O)NCC1CC(Br)=NO1)OCc1ccccc1` (stereo partly drawn) [1h, {(R)-1-[(3-Bromo-4,5-dihydro-isoxazol-5-ylmethyl)-carbamoyl]-2-phenyl-ethyl}-carbamic acid benzyl ester], for which the “Inhibition Rate Constants (kinh)” value in experiment [1] amounted to 0.29 min⁻¹.
With `C[C@H](NC(=O)OCc1ccccc1)C(=O)NCC1CC(Br)=NO1` (stereo partly drawn) [1i, {(S)-1-[(3-Bromo-4,5-dihydro-isoxazol-5-ylmethyl)-carbamoyl]-ethyl}-carbamic acid benzyl ester], in experiment [1], the kinh/Kl was determined as 450 min^−1M^−1 and the “Inhibition Rate Constants (kinh)” value came out at 0.41 min⁻¹.
In the same order, the values of `O=C(C[C@H](NC(=O)OCc1ccccc1)C(=O)NCC1CC(Br)=NO1)NCc1ccccc1` (stereo partly drawn) [1g, {(S)-2-Benzylcarbamoyl-1-[(3-bromo-4,5-dihydro-isoxazol-5-ylmethyl)-carbamoyl]-ethyl}-carbamic acid benzyl ester] are 2300 min^−1M^−1 and 0.54 min⁻¹.
Turning to `O=C(NCC1CC(Br)=NO1)Nc1cc(C(F)(F)F)ccc1Cl` (stereo not drawn) [1-(3-Bromo-4,5-dihydro-isoxazol-5-ylmethyl)-3-(2-chloro-5-trifluoromethyl-phenyl)-urea], the Ki in experiment [2] (setting [3]) was found to be 910 µM.
For `O=C(N[C@@H](Cc1ccc(O)cc1)C(=O)NCC1CC(Br)=NO1)OCc1ccc2ccccc2c1` (stereo partly drawn) [3e, {(S)-1-[(3-Bromo-4,5-dihydro-isoxazol-5-ylmethyl)-carbamoyl]-2-(4-hydroxy-phenyl)-ethyl}-carbamic acid naphthalen-2-ylmethyl ester], in experiment [1], the kinh/Kl stood at 1600 min^−1M^−1, the Ki was determined as 43 µM and the “Inhibition Rate Constants (kinh)” value was 0.070 min⁻¹.
For `O=C(N[C@@H](Cc1ccc(O)cc1)C(=O)NCC1CC(Br)=NO1)OCc1ccccc1` (stereo partly drawn) [1b], in that order: 2000 min^−1M^−1, 420 µM and 0.86 min⁻¹.
With `O=C(NCC1CC(Br)=NO1)Nc1ccccc1` (stereo not drawn) [1-(3-Bromo-4,5-dihydro-isoxazol-5-ylmethyl)-3-phenyl-urea], the Ki in experiment [2] (setting [3]) worked out at 1100 µM.
For `O=C1Nc2cc(-c3ccccc3)ccc2C1=O` [R1 = R3 = H; R2 = Ph], the Ki in experiment [2] (setting [4]) came out at 350 µM.
As for `O=C(N[C@@H](Cc1ccc(O)cc1)C(=O)NCC1CC(Br)=NO1)OCC1=Cc2ccccc2S1(=O)=O` (stereo partly drawn) [3f, {(S)-1-[(3-Bromo-4,5-dihydro-isoxazol-5-ylmethyl)-carbamoyl]-2-(4-hydroxy-phenyl)-ethyl}-carbamic acid 1,1-dioxo-1H-1λ6-benzo[b]thiophen-2-ylmethyl ester], in experiment [1], the kinh/Kl amounted to 4400 min^−1M^−1, the Ki is 87 µM and the “Inhibition Rate Constants (kinh)” value was 0.38 min⁻¹.
Regarding `O=C1Nc2ccc(I)cc2C1=O` [R2 = R3 = H; R1 = I], the Ki in experiment [2] (setting [4]) worked out at 22 µM.
For the molecule `O=C(N[C@@H](Cc1ccccc1)C(=O)OCC1CC(Br)=NO1)OCc1ccccc1` (stereo partly drawn) [2a, (S)-2-Benzyloxycarbonylamino-3-phenyl-propionic acid 3-bromo-4,5-dihydro-isoxazol-5-ylmethyl ester], in experiment [1], the kinh/Kl is given as 230 min^−1M^−1 and the “Inhibition Rate Constants (kinh)” value came out at 0.32 min⁻¹.
Regarding `O=C(N[C@@H](Cc1c[nH]c2ccc(O)cc12)C(=O)NCC1CC(Br)=NO1)OCc1ccccc1` (stereo partly drawn) [1f, {(S)-1-[(3-Bromo-4,5-dihydro-isoxazol-5-ylmethyl)-carbamoyl]-2-(5-hydroxy-1H-indol-3-yl)-ethyl}-carbamic acid benzyl ester], in experiment [1], the kinh/Kl was 2800 min^−1M^−1, the Ki came to 110 µM and the “Inhibition Rate Constants (kinh)” value is 0.31 min⁻¹.
For `O=C(N[C@@H](Cc1cccc(F)c1)C(=O)NCC1CC(Br)=NO1)OCc1ccccc1` (stereo partly drawn) [1d, {(S)-1-[(3-Bromo-4,5-dihydro-isoxazol-5-ylmethyl)-carbamoyl]-2-(3-fluoro-phenyl)-ethyl}-carbamic acid benzyl ester], in that order: 2200 min^−1M^−1, 390 µM and 0.84 min⁻¹.
Turning to `O=C(NCC1CC(Br)=NO1)Nc1ccc(Cl)cc1C(F)(F)F` (stereo not drawn) [1-(3-Bromo-4,5-dihydro-isoxazol-5-ylmethyl)-3-(4-chloro-2-trifluoromethyl-phenyl)-urea], the Ki in experiment [2] (setting [3]) is 1300 µM.
As to `O=C(N[C@@H](Cc1ccc(O)cc1)C(=O)NCC1CC(Br)=NO1)OCCc1ccccc1` (stereo partly drawn) [3d, {(S)-1-[(3-Bromo-4,5-dihydro-isoxazol-5-ylmethyl)-carbamoyl]-2-(4-hydroxy-phenyl)-ethyl}-carbamic acid phenethyl ester], in experiment [1], the kinh/Kl came to 1500 min^−1M^−1, the Ki turned out to be 61 µM and the “Inhibition Rate Constants (kinh)” value is 0.093 min⁻¹.
`CC(=O)N[C@@H](Cc1ccccc1)C(=O)NCC1CC(Br)=NO1` (stereo partly drawn) [3a, (S)-2-Acetylamino-N-(3-bromo-4,5-dihydro-isoxazol-5-ylmethyl)-3-phenyl-propionamide]: in experiment [1], the kinh/Kl came to 220 min^−1M^−1 and the “Inhibition Rate Constants (kinh)” value came to 0.60 min⁻¹.
Regarding `Cc1ccc(C)c(NC(=O)NCC2CC(Br)=NO2)c1` (stereo not drawn) [1-(3-Bromo-4,5-dihydro-isoxazol-5-ylmethyl)-3-(2,5-dimethyl-phenyl)-urea], the Ki in experiment [2] (setting [3]) is 960 µM.
Turning to `O=C1Nc2ccccc2C1=O` [R1 = R2 = R3 = H], the Ki in experiment [2] (setting [4]) is 860 µM.
Consider `O=C1Nc2c(cccc2-c2ccccc2)C1=O` [R1 = R2 = H; R3 = Ph], for which, in experiment [2] (setting [4]), the Ki stood at 400 µM.
With `CN(CC1CC(Br)=NO1)C(=O)[C@H](Cc1ccccc1)NC(=O)OCc1ccccc1` (stereo partly drawn) [2b, {(S)-1-[(3-Bromo-4,5-dihydro-isoxazol-5-ylmethyl)-methyl-carbamoyl]-2-phenyl-ethyl}-carbamic acid benzyl ester], in experiment [1], the kinh/Kl came to 730 min^−1M^−1 and the “Inhibition Rate Constants (kinh)” value stood at 0.19 min⁻¹.
Take `O=C1Nc2ccc([N+](=O)[O-])cc2C1=O` [R2 = R3 = H, R1 = NO2]: the Ki in experiment [2] (setting [4]) is 48 µM.
Regarding `O=C(N[C@@H](Cc1c[nH]c2ccccc12)C(=O)NCC1CC(Br)=NO1)OCc1ccccc1` (stereo partly drawn) [1e, {(S)-1-[(3-Bromo-4,5-dihydro-isoxazol-5-ylmethyl)-carbamoyl]-2-(1H-indol-3-yl)-ethyl}carbamic acid benzyl ester], in experiment [1], the kinh/Kl is listed as 2500 min^−1M^−1, the Ki was 310 µM and the “Inhibition Rate Constants (kinh)” value was 0.78 min⁻¹.
For `O=C(N[C@@H](Cc1c[nH]c2ccc(O)cc12)C(=O)NCC1CC(Br)=NO1)OCC1=Cc2ccccc2S1(=O)=O` (stereo partly drawn) [compound 4, {(S)-1-[(3-Bromo-4,5-dihydro-isoxazol-5-ylmethyl)-carbamoyl]-2-(5-hydroxy-1H-indol-3-yl)-ethyl}-carbamic acid 1,1-dioxo-1H-1λ6-benzo[b]thiophen-2-ylmethyl ester], in that order: 6800 min^−1M^−1, 79 µM and 0.54 min⁻¹.
As for `O=C(NCC1CC(Br)=NO1)Nc1ccc(F)cc1` (stereo not drawn) [1-(3-Bromo-4,5-dihydro-isoxazol-5-ylmethyl)-3-(4-fluoro-phenyl)-urea], the Ki in experiment [2] (setting [3]) was 1300 µM.
Regarding `O=C(N[C@@H](Cc1ccc(O)cc1)C(=O)NCC1CC(Br)=NO1)OCc1ccncc1` (stereo partly drawn) [3b, {(S)-1-[(3-Bromo-4,5-dihydro-isoxazol-5-ylmethyl)-carbamoyl]-2-(4-hydroxy-phenyl)-ethyl}-carbamic acid pyridin-4-ylmethyl ester], in experiment [1], the kinh/Kl is 1500 min^−1M^−1, the Ki worked out at 81 µM and the “Inhibition Rate Constants (kinh)” value is 0.12 min⁻¹.

The values are drawn from patent US20080233102A1, “Drug Therapy for Celiac Sprue” (priority 2002, published 2008).
